Source: US6355799B1, “Substituted benzene compounds, process for their preparation, and herbicidal and defoliant compositions containing them” (ISK Americas Incorporated, priority 1997, dated 2002)

Legend:
Assay type in all cases: in vivo
[1] = tested on: redroot pigweed (Amaranthus retroflexus, AMARE); test: Pre-emerge test, greenhouse herbicide activity screening; conditions: pre-emerge, rated 14 days after application, 0 = no damage, 100 = complete death
Outline: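 Herbicidal damage is scored 0 (none) to 100 (complete plant death) two weeks after a simulated field spray. Rates span 15–1000 g ai/ha, delivered in acetone at 187 l/ha. For post-emergence treatments, plants have 2–3 leaves and the spray carries 0.25% v/v non-ionic surfactant.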

[2] = tested on: barnyardgrass (Echinochloa crus-galli, ECHCG); test: as above; conditions: pre-emerge, rated 14 days after application, 0 = no damage, 100 = complete death
Outline: (§1)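 Visual ratings on a 0-100 scale (0 no damage, 100 all plants dead) were taken at 14 days after treatment. Rates of 15-1000 g ai/ha in acetone, 187 l/ha, were sprayed onto soil one day after planting (pre-emerge) or onto 2-3 leaf plants with 0.25% v/v surfactant (post-emerge).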

[3] = tested on: green foxtail (Setaria viridis, SETVI); test: as above; conditions: pre-emerge, rated 14 days after application, 0 = no damage, 100 = complete death
Outline: as §1

[4] = tested on: ivyleaf morningglory (Ipomoea hederacea, IPOHE); test: as above; conditions: pre-emerge, rated 14 days after application, 0 = no damage, 100 = complete death
Outline: as §1

[5] = tested on: johnsongrass (Sorghum halepense, SORHA); test: as above; conditions: pre-emerge, rated 14 days after application, 0 = no damage, 100 = complete death
Outline: as §1

[6] = tested on: lambsquarters (Chenopodium album, CHEAL); test: as above; conditions: pre-emerge, rated 14 days after application, 0 = no damage, 100 = complete death
Outline: as §1

[7] = tested on: large crabgrass (Digitaria sanguinalis, DIGSA); test: as above; conditions: pre-emerge, rated 14 days after application, 0 = no damage, 100 = complete death
Outline: as §1

[8] = tested on: sicklepod (Cassia obtusifolia, CASOB); test: as above; conditions: pre-emerge, rated 14 days after application, 0 = no damage, 100 = complete death
Outline: as §1

[9] = tested on: velvetleaf (Abutilon theophrasti, ABUTH); test: as above; conditions: pre-emerge, rated 14 days after application, 0 = no damage, 100 = complete death
Outline: as §1

[10] = tested on: field corn (Zea mays L., var. Dekalb 535, CORN); test: Pre-emerge test, crop safety; conditions: pre-emerge, rated 14 days after application, 0 = no damage, 100 = complete death
Outline: (§2)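 Compounds in acetone were track-sprayed at 15-1000 g ai/ha (187 l/ha) on sandy loam pots: pre-emerge one day after seeding, post-emerge at 2-3 leaf stage with 0.25% v/v non-ionic surfactant. Phytotoxicity was rated 14 days later on a 0 (no damage) to 100 (complete death) scale.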

[11] = tested on: upland rice (Oryza sp., var. Tebonnet, RICE); test: Pre-emerge test, crop safety; conditions: pre-emerge, rated 14 days after application, 0 = no damage, 100 = complete death
Outline: as §2

[12] = tested on: barnyardgrass (Echinochloa crus-galli, ECHCG); test: Post-emerge test, greenhouse herbicide activity screening; conditions: phytotoxicity rating 0-100 (0 no damage, 100 complete death), 14 days after application
Outline: (§3)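 Plants grown in 10 cm pots of sandy loam mix received acetone-dissolved compounds through a moving flat-fan nozzle. Doses ranged from 15 to 1000 g ai/ha. Pre-emerge pots were seeded one day earlier, post-emerge pots 8–21 days earlier. Fourteen days on, each pot was graded 0–100 for damage.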

[13] = tested on: common ragweed (Ambrosia artemisizfolia L., AMBEL); test: as above; conditions: phytotoxicity rating 0-100 (0 no damage, 100 complete death), 14 days after application
Outline: as §3

[14] = tested on: green foxtail (Setaria viridis, SETVI); test: as above; conditions: phytotoxicity rating 0-100 (0 no damage, 100 complete death), 14 days after application
Outline: as §3

[15] = tested on: ivyleaf morningglory (Ipomoea hederacea, IPOHE); test: as above; conditions: phytotoxicity rating 0-100 (0 no damage, 100 complete death), 14 days after application
Outline: as §3

[16] = tested on: johnsongrass (Sorghum halepense, SORHA); test: as above; conditions: phytotoxicity rating 0-100 (0 no damage, 100 complete death), 14 days after application
Outline: as §3

[17] = tested on: lambsquarters (Chenopodium album, CHEAL); test: as above; conditions: phytotoxicity rating 0-100 (0 no damage, 100 complete death), 14 days after application
Outline: as §3

[18] = tested on: large crabgrass (Digitaria sanguinalis, DIGSA); test: as above; conditions: phytotoxicity rating 0-100 (0 no damage, 100 complete death), 14 days after application
Outline: as §3

[19] = tested on: redroot pigweed (Amaranthus retroflexus, AMARE); test: as above; conditions: phytotoxicity rating 0-100 (0 no damage, 100 complete death), 14 days after application
Outline: as §3

[20] = tested on: sicklepod (Cassia obtusifolia, CASOB); test: as above; conditions: phytotoxicity rating 0-100 (0 no damage, 100 complete death), 14 days after application
Outline: as §3

[21] = tested on: velvetleaf (Abutilon theophrasti, ABUTH); test: as above; conditions: phytotoxicity rating 0-100 (0 no damage, 100 complete death), 14 days after application
Outline: as §3

[22] = tested on: field corn (Zea mays L., var. Dekalb 535, CORN); test: Post-emerge test, crop safety; conditions: phytotoxicity rating 0-100 (0 no damage, 100 complete death), 14 days after application
Outline: as §1

[23] = tested on: upland rice (Oryza sp., var. Tebonnet, RICE); test: Post-emerge test, crop safety; conditions: phytotoxicity rating 0-100 (0 no damage, 100 complete death), 14 days after application
Outline: as §1

In the case of `COc1c(Cl)cc(F)c(-n2c(=O)cc(C(F)(F)F)n(C)c2=O)c1N=CN(C)C` [Compound 1-31, 3-[4-chloro-2-(dimethylaminomethynyl)imino-6-fluoro-3-methoxyphenyl]-1-methyl-6-trifluoromethyl-2,4(1H, 3H)-pyrimidinedione], the “Pre-emerge Herbicidal Activity AMARE (phytotoxicity rating, scale 0-100)” value ([1]; 63 g ai/ha) is reported as 80, the “Pre-emerge Herbicidal Activity AMARE (phytotoxicity rating, scale 0-100)” value ([1]; 250 g ai/ha) is reported as 100 and the “Pre-emerge Herbicidal Activity ECHCG (phytotoxicity rating, scale 0-100)” value ([2]; 63 g ai/ha) is reported as 0. For the same compound, the “Pre-emerge Herbicidal Activity ECHCG (phytotoxicity rating, scale 0-100)” value ([2]; 250 g ai/ha) was 40, the “Pre-emerge Herbicidal Activity SETVI (phytotoxicity rating, scale 0-100)” value ([3]; 63 g ai/ha) was 50 and the “Pre-emerge Herbicidal Activity SETVI (phytotoxicity rating, scale 0-100)” value ([3]; 250 g ai/ha) was 100. The “Pre-emerge Herbicidal Activity IPOHE (phytotoxicity rating, scale 0-100)” value ([4]; 63 g ai/ha) was 0, the “Pre-emerge Herbicidal Activity IPOHE (phytotoxicity rating, scale 0-100)” value ([4]; 250 g ai/ha) was 80 and the “Pre-emerge Herbicidal Activity SORHA (phytotoxicity rating, scale 0-100)” value ([5]; 63 g ai/ha) was 0. The “Pre-emerge Herbicidal Activity SORHA (phytotoxicity rating, scale 0-100)” value ([5]; 250 g ai/ha) was 90, the “Pre-emerge Herbicidal Activity CHEAL (phytotoxicity rating, scale 0-100)” value ([6]; 63 g ai/ha) was 95 and the “Pre-emerge Herbicidal Activity CHEAL (phytotoxicity rating, scale 0-100)” value ([6]; 250 g ai/ha) was 100. For the same compound, the “Pre-emerge Herbicidal Activity DIGSA (phytotoxicity rating, scale 0-100)” value ([7]; 63 g ai/ha) was 0, the “Pre-emerge Herbicidal Activity DIGSA (phytotoxicity rating, scale 0-100)” value ([7]; 250 g ai/ha) was 90 and the “Pre-emerge Herbicidal Activity CASOB (phytotoxicity rating, scale 0-100)” value ([8]; 63 g ai/ha) was 70. The “Pre-emerge Herbicidal Activity CASOB (phytotoxicity rating, scale 0-100)” value ([8]; 250 g ai/ha) was 95, the “Pre-emerge Herbicidal Activity ABUTH (phytotoxicity rating, scale 0-100)” value ([9]; 63 g ai/ha) was 100 and the “Pre-emerge Herbicidal Activity ABUTH (phytotoxicity rating, scale 0-100)” value ([9]; 250 g ai/ha) was 100. For the same compound, the “Pre-emerge crop damage CORN (phytotoxicity rating, scale 0-100)” value ([10]; 63 g ai/ha) was 0, the “Pre-emerge crop damage CORN (phytotoxicity rating, scale 0-100)” value ([10]; 250 g ai/ha) was 50 and the “Pre-emerge crop damage RICE (phytotoxicity rating, scale 0-100)” value ([11]; 63 g ai/ha) was 0. The “Pre-emerge crop damage RICE (phytotoxicity rating, scale 0-100)” value ([11]; 250 g ai/ha) was 10, the “Post-emerge Herbicidal Activity ECHCG” value ([12]; 63 g ai/ha) was 0 and the “Post-emerge Herbicidal Activity ECHCG” value ([12]; 250 g ai/ha) was 0. The “Post-emerge Herbicidal Activity AMBEL” value ([13]; 63 g ai/ha) was 0, the “Post-emerge Herbicidal Activity AMBEL” value ([13]; 250 g ai/ha) was 0 and the “Post-emerge Herbicidal Activity SETVI” value ([14]; 63 g ai/ha) was 0. For the same compound, the “Post-emerge Herbicidal Activity SETVI” value ([14]; 250 g ai/ha) was 0, the “Post-emerge Herbicidal Activity IPOHE” value ([15]; 63 g ai/ha) was 10 and the “Post-emerge Herbicidal Activity IPOHE” value ([15]; 250 g ai/ha) was 50. The “Post-emerge Herbicidal Activity SORHA” value ([16]; 63 g ai/ha) was 0, the “Post-emerge Herbicidal Activity SORHA” value ([16]; 250 g ai/ha) was 0 and the “Post-emerge Herbicidal Activity CHEAL” value ([17]; 63 g ai/ha) was 0. For the same compound, the “Post-emerge Herbicidal Activity CHEAL” value ([17]; 250 g ai/ha) was 40, the “Post-emerge Herbicidal Activity DIGSA” value ([18]; 63 g ai/ha) was 0 and the “Post-emerge Herbicidal Activity DIGSA” value ([18]; 250 g ai/ha) was 0. For the same compound, the “Post-emerge Herbicidal Activity AMARE” value ([19]; 63 g ai/ha) was 10, the “Post-emerge Herbicidal Activity AMARE” value ([19]; 250 g ai/ha) was 30 and the “Post-emerge Herbicidal Activity CASOB” value ([20]; 63 g ai/ha) was 0. For the same compound, the “Post-emerge Herbicidal Activity CASOB” value ([20]; 250 g ai/ha) was 0, the “Post-emerge Herbicidal Activity ABUTH” value ([21]; 63 g ai/ha) was 20 and the “Post-emerge Herbicidal Activity ABUTH” value ([21]; 250 g ai/ha) was 50. For the same compound, the “Post-emerge Herbicidal Activity CORN (crop damage)” value ([22]; 63 g ai/ha) was 0, the “Post-emerge Herbicidal Activity CORN (crop damage)” value ([22]; 250 g ai/ha) was 0 and the “Post-emerge Herbicidal Activity RICE (crop damage)” value ([23]; 63 g ai/ha) was 0. For the same compound, the “Post-emerge Herbicidal Activity RICE (crop damage)” value ([23]; 250 g ai/ha) was 10.
